The source made the active and inactive calls. No cut-off for these calls is given here.
What was measured:
[1] = tested on: Agrobacterium tumefaciens; test: Induction of acylated homoserine lactone system-mediated traI-lacZ reporter gene expression in Agrobacterium tumefaciens A136 at 2.5 ug; format: functional, organism-based
Vibrio harveyi = test: Induction of bioluminescence in Vibrio harveyi UNSW at 10 uM relative to control; format: functional

Structure (SMILES) | Activity [1] | fold change (FC) (Vibrio harveyi)
CCCC(=O)CC(=O)N[C@H]1CCOC1=O | Active | 
CC(O)CC(=O)N[C@H]1CCOC1=O (some centres undefined) |  | 128
CCCCOC(OCC(C)C)C(C)(C)O (centres undefined) | Active | 32

From ChEMBL document CHEMBL1150821, “A new metabolite from the marine bacterium Vibrio angustum S14” (2001)
